Read-outs that look alike come from different tables or passages of the source.
Assays:
SUM159 cells [1] = test: Cell cycle analysis of SUM159 cells synchronized with nocodazole in G2/M; type: cell-based, human
Description: Cell cycle analysis was performed 72 hr after JQ1 treatment or BRD4 downregulation with doxycycline using propidium iodide (PI) staining. Cells were resuspended in 1 ml of growth medium supplemented with 2 μg/ml PI (Life Technologies) as final concentration. After 60 min at 37° C. in the dark, analysis was performed on a FACS AriaII cytometer (BD Biosciences). The cell cycle was plotted as histogram after excluding doublets. Cell synchronization Procedure. SUM159 cells were treated with nocodazole (200 ng/ml) for 12 h and then cells were tapped to detach from the plates. After washing twice with PBS, cells were replated with or without JQ1 in collagen coated plates. Cells were collected at 0, 3, 6, 12 h time point for FACS and immunoblot analysis.

[2] = system: pSTAT3, pJAK2 and MYC in SUM159 cells; test: Immunoblot kinetic study of signaling factors after JQ1; type: cell-based, human
Excerpt: Immunoblotting and immunoprecipitation experiments were repeated 2-3 times.

TNBC cells = test: Immunofluorescence microscopy for basal and luminal markers; type: cell-based, human; conditions: 3 days after JQ1 (500 nM)
Description: Antibodies used for immunofluorescence were CK18 (Dako, M7010), CK17 (Dako, M7046), HMW (Dako, M0630), LMW (Dako, M0631), CD44 (NeoMarkers, MS-668-P1), CD24 (NeoMarkers, MS-1279-P1), p-STAT3 (Cell Signaling, 9145S), VIM (Dako, M073501), CDH1 (BD Biosciences, 610181), FLAG (Sigma, F1804), BrdU (Roche, 11170376001). Immunofluorescence experiments were performed in cultured cells or in whole sections of formalin-fixed paraffin embedded (FFPE) xenograft tumors. The staining was performed as described^50. Antibody dilutions were as follows: pSTAT3 (1:25), CD44 (1:100), CD24 (1:100), CK18 (1:200), CK17 (1:200), HMK (1:200), LMK (1:200), VIM (1:100), CDH1 (1:100), FLAG (1:50), and BrdU (1:200).

[3] = system: tumors derived from SUM159; test: Xenograft assay, SUM159; type: in vivo, mice; conditions: two weeks of JQ1, 50 mg/kg daily
Description: For xenograft assays 5-6-weeks old female CrTac:NCr-Foxn1^nu and NOD.Cg-Prkdc^scid Il2rg^tm1Sug/JicTac mice were purchased from Taconic. Tumors were induced by bilateral orthotopic mammary fat pad injection of 1×10^6 cells in 50% Matrigel (BD Biosciences) in DMEM/F12 or Medium 171 (except for IDC50-X cells, which were injected with 3% FBS and 4 mg/ml collagen gel in Medium 171). Animal experiments were conducted following protocol 11-023 approved by the Dana-Farber Cancer Institute Animal Care and Use Committee.

SUM149 cells = test: Cell growth assay (viable cell numbers); type: cell-based, human; conditions: low (0.5 μM) and high (2.0 μM) doses, 6 days
Description: (§1) Cell viability and growth assays (FIGS. 1A-1B, FIGS. 3A-3E, 3G, FIGS. 5D-5F, FIGS. 6C, 6E, 6I, FIG. 7A, FIG. 10D, FIGS. 14A-14C), cycle, apoptosis, and MDR assays were performed in triplicates and repeated 2-3 times. For cell proliferation assays, cells were plated at 500 cells per well in 96-well plates and treated the next day with inhibitors, DMSO or doxycycline (500 ng). Cells were cultured at 37° C. with 5% CO2 in the media described-above, and cell viability was measured using CellTiter-Glo three days after treatments. For cell growth assays, cells were plated at 5000 (SUM159) or 20000 (SUM149) cells per well in 6-well plates and treated the next day with inhibitors. Cells were counted every three days by cell counter. Cellular apoptosis was analyzed with an APC AnnexinV/7ADD Apoptosis Detection kit (BD Pharmingen). AnnexinV/7AAD assessments and cell cycle graphics were generated using FlowJo software V7.6.1 for Windows (Tree Star). Senescence Beta-gal staining was performed using Senescence β-Galactosidase staining kit from Cell signaling. Briefly, after JQ1 treatment (500 nM) for 72 h, SUM159 and MDA-MB-231 cells were fixed by Fixative Solution for 15 min, followed by β-Galactosidase solution incubation overnight at 37° C. The staining was checked under microscope for the development of blue color. […] Briefly, SUM159 and SUM159R cells were treated with JQ1 or DMSO for 30 min in SUM medium. Verapamil was used as a positive control at 1:1000 dilution.

SUM149R cells = test: Cell growth assay (viable cell numbers); type: cell-based, human; conditions: high concentrations (up to 20 μM) of JQ1
Description: as §1

SUM159 cells [4] = test: Cell growth assay (viable cell numbers); type: cell-based, human; conditions: low (0.5 μM) and high (2.0 μM) doses, 6 days
Description: as §1

SUM159R cells = test: Cell growth assay (viable cell numbers); type: cell-based, human; conditions: high concentrations (up to 20 μM) of JQ1
Description: as §1

[5] = target: T1, chromatin-bound BRD4 in SUM159 cells (Homo sapiens, UniProt O60885); conditions: SUM159, JQ1 exposure
Description: Chem-seq was performed essentially as described^27. ChIP-seq: SUM159 and SUM159R cells (4×10^7) were grown in SUM Medium. The media were then removed and replaced with media containing 1% formaldehyde (EM grade; tebu-bio) and crosslinked for 8 min. Crosslinking was quenched by adding glycine to a final concentration of 0.2 M. The cells were washed with ice-cold PBS, harvested in PBS, and the cell pellet was washed with PBS. The nuclear fraction was extracted by first resuspending the pellet in 10 ml of LB1 buffer (50 mM HEPES-KOH [pH 7.5], 140 mM NaCl, 1mMEDTA, 10% glycerol, 0.5% NP-40 or Igepal CA-630, and 0.25% Triton X-100) for 10 min at 4° C. Cells were pelleted, resuspended in 10 ml of LB2 buffer (10 mM Tris-HCL [pH 8.0], 200 mM NaCl, 1 mM EDTA, and 0.5 mM EGTA), and mixed for 5 min. Cells were pelleted and resuspended in 300 μl of LB3 buffer (10 mM Tris-HCl [pH 8], 100 mM NaCl, 1 mM EDTA, 0.5 mM EGTA, 0.1% Na-deoxycholate, and 0.5% N-lauroylsarcosine) and sonicated in a covaris sonicator for 10 min. A total of 30 μl of 10% Triton X-100 was added, and lysate was centrifuged for 10 min at 20,000 rcf to purify the debris. The supernatant was then incubated with 100 μl of magnetic beads (Life Technologies) prebound with 20 μg BRD4 antibody (Bethyl, A301-985A), and immunoprecipitation (IP) was conducted overnight in the cold room. […]

[6] = target: T1, chromatin-bound BRD4 in SUM159 cells
Description: Chem-seq was performed essentially as described^27. ChIP-seq: SUM159 and SUM159R cells (4×10^7) were grown in SUM Medium. The media were then removed and replaced with media containing 1% formaldehyde (EM grade; tebu-bio) and crosslinked for 8 min. Crosslinking was quenched by adding glycine to a final concentration of 0.2 M. The cells were washed with ice-cold PBS, harvested in PBS, and the cell pellet was washed with PBS. The nuclear fraction was extracted by first resuspending the pellet in 10 ml of LB1 buffer (50 mM HEPES-KOH [pH 7.5], 140 mM NaCl, 1mMEDTA, 10% glycerol, 0.5% NP-40 or Igepal CA-630, and 0.25% Triton X-100) for 10 min at 4° C. Cells were pelleted, resuspended in 10 ml of LB2 buffer (10 mM Tris-HCL [pH 8.0], 200 mM NaCl, 1 mM EDTA, and 0.5 mM EGTA), and mixed for 5 min. Cells were pelleted and resuspended in 300 μl of LB3 buffer (10 mM Tris-HCl [pH 8], 100 mM NaCl, 1 mM EDTA, 0.5 mM EGTA, 0.1% Na-deoxycholate, and 0.5% N-lauroylsarcosine) and sonicated in a covaris sonicator for 10 min. A total of 30 μl of 10% Triton X-100 was added, and lysate was centrifuged for 10 min at 20,000 rcf to purify the debris. The supernatant was then incubated with 100 μl of magnetic beads (Life Technologies) prebound with 20 μg BRD4 antibody (Bethyl, A301-985A), and immunoprecipitation (IP) was conducted overnight in the cold room. The beads were washed ten times in 1 ml of RIPA buffer and twice in 100 mM ammonium hydrogen carbonate (AMBIC) solution. DNA was eluted in elution buffer (50 mM Tris-HCl pH 8, 10 mM EDTA, and 1% SDS). Cross-links were reversed overnight at 65° C. RNA and protein were digested with 0.2 mg/mL RNase A for 2 hr followed by 0.2 mg/mL Proteinase K for 1 hr. DNA was purified with phenol chloroform extraction and ethanol precipitation. Libraries for Illumina sequencing were prepared following the Rubicon ThruPLEX-FD kit for 10-12 cycles.

[7] = target: BRD4-MED1 association in SUM159 cells (Homo sapiens, UniProt O60885); test: BRD4 immunoprecipitation followed by immunoblot for MED1, resistant cells; type: cell-based; parameters: Observations from RIME data were pursued by BRD4 immunoprecipitation followed by immunoblot analysis for MED1 and BRD3; endogenous in cells; host or cells: SUM159 and SUM159R cells (nuclear extracts); conditions: resistant cells
Description: Cells were lysed five days after transfection with siRNAs in RIPA buffer. Proteins were resolved in SDS-polyacrylamide gels (4%-12%) and transferred to PVDF membranes by using a Tris-glycine buffer system. […] Cells were incubated on ice for 15 min and gently vortexed every 5 min. […] After centrifugation of the lysates at 14 g for 10 min at 4° C., supernatant was diluted with 0.6 ml buffer A, and added NP-40 to final 0.5% and treated with DNase I. The samples were then incubated at 4° C. overnight with BRD4 or Flag antibodies at 1:100 dilution and immunoprecipitates were collected on Dynabeads Protein G for 2 hr. Beads were washed with buffer B containing 150 mM NaCl and 0.5% NP-40 three times and then resuspended in gel loading buffer. Immunoblotting and immunoprecipitation experiments were repeated 2-3 times.

Cc1sc2c(c1C)C(c1ccc(Cl)cc1)=N[C@@H](CC(=O)OC(C)(C)C)c1nnc(C)n1-2 [JQ1]
Cell cycle after release from G2/M (SUM159 cells [1]; JQ1 (500 nM) added 3 hours after release): less pronounced effects | Cell cycle after release from G2/M (SUM159 cells [1]; JQ1 (500 nM) administered 1 hour before release): arrested in early G1 with high cyclin D1 levels | pSTAT3 and pJAK2 levels ([2]; SUM159, after 12 hours): decrease in pSTAT3 and pJAK2 | MYC level ([2]; SUM159, at 24 hours): dose-responsive decrease in MYC | Basal markers (HMW cytokeratins) (TNBC cells): decrease of high molecular-weight (HMW) cytokeratins | Luminal markers (LMW cytokeratins, CK18) (TNBC cells): elevation of low molecular-weight (LMW) cytokeratins and cytokeratin 18 (CK18) | Tumor growth [3]: efficiently inhibited the growth of established tumors | Proliferation (SUM149 cells): severely impaired | Proliferation (SUM149R cells): continue to proliferate linearly over time | Proliferation (SUM159 cells [4]): severely impaired | Proliferation (SUM159R cells): continue to proliferate linearly over time | BRD4 occupancy at Chem-seq-defined SE regions [5]: depleted of BRD4 | BRD4 occupancy at Chem-seq-defined SE regions ([6]; SUM159R, JQ1 exposure): retain chromatin-bound BRD4 | Displacement of BRD4 from chromatin ([6]; SUM159R, following JQ1 treatment): not displaced from chromatin | Effect on H3K27ac or global transcription ([6]; resistant cells): fails to influence | Association of BRD4 with MED1 [7]: had no such effect
